This note sets out measurements from US20040110802A1, “Antibacterial benzoic acid derivatives” (priority 2002, published 2004).

Values after ≈ are worked out from the molar mass of the structure shown.

As a reminder, the MIC is the lowest concentration found to suppress growth.

The assay deals with SAUR 9218. The assay is described as follows: MIC Test Method, standard agar dilution. Particulars: agar dilution, Mueller Hinton agar, incubated overnight at 35° C.; lowest concentration that inhibits visible growth; read-out: SAUR 9218 MIC. It counts as cell-based. In outline:
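Agar dilution in Mueller Hinton agar with serial 2-fold compound dilutions. Staphylococcus aureus strain 9218 spotted at approximately 10^4 to 10^5 cells per spot, incubated overnight at 35 °C; MIC (μg/ml) is the lowest concentration preventing visible growth.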
For `O=C(Nc1ccc(Br)cc1C(=O)O)c1ccc2c(c1)S(=O)(=O)c1ccccc1C2=O`, the MIC amounted to 16 µg/mL (≈ 32.9 µM).

Regarding `O=C(Nc1ccc(Br)cc1C(=O)O)c1cccs1`, the MIC is greater than 128 µg/mL. On to `O=C(O)c1cc(Br)ccc1NC(=O)c1cccnc1Cl`, for which the MIC was greater than 128 µg/mL. In the case of `O=C(O)c1cc(Br)ccc1NC(=O)c1cc(OCc2ccccc2)cc[n+]1[O-]` it was 32 µg/mL (≈ 72.2 µM); in that of `N#Cc1ccc(NC(=O)c2cc3cccc(NC(=O)c4ccccc4)c3[nH]2)c(C(=O)O)c1`, 2 µg/mL (≈ 4.71 µM). In the case of `O=C(Nc1ccc(Br)cc1C(=O)O)C1=NS(=O)(=O)c2ccccc21` it was greater than 128 µg/mL. In the case of `N#Cc1ccc(NC(=O)c2cc3cccc(NS(=O)(=O)c4ccc(OC(F)(F)F)cc4)c3[nH]2)c(C(=O)O)c1` it was 1 µg/mL (≈ 1.84 µM). Take `COc1ccc(C(=O)Nc2ccc(C#N)cc2C(=O)O)cn1`: the MIC stood at 8 µg/mL (≈ 26.9 µM). In the case of `N#Cc1ccc(NC(=O)c2cc(CSc3ccncc3)on2)c(C(=O)O)c1` it was 1 µg/mL (≈ 2.63 µM). On to `Cc1noc(C)c1CSc1ccc(C(=O)Nc2ccc(C#N)cc2C(=O)O)cn1`, for which the MIC stood at 0.5 µg/mL (≈ 1.22 µM). In the case of `COCC1CCCN1S(=O)(=O)c1cc(C(=O)Nc2ccc(C#N)cc2C(=O)O)sc1C` (stereo not shown), the MIC was found to be 64 µg/mL (≈ 138 µM). In the case of `Cc1c(C(=O)Nc2ccc(Br)cc2C(=O)O)noc1-c1ccccc1` it was 0.5 µg/mL (≈ 1.25 µM); in that of `N#Cc1ccc(NC(=O)c2cc(CCl)on2)c(C(=O)O)c1`, 4 µg/mL (≈ 13.1 µM); in that of `Cc1c(C(=O)Nc2ccc(C#N)cc2C(=O)O)noc1-c1ccccc1`, 0.25 µg/mL (≈ 0.72 µM). The same measure for `O=C(Nc1ccc(Br)cc1C(=O)O)c1csc(S(=O)(=O)N2CC3CC2CN3Cc2ccccc2)c1` (stereo not shown): greater than 128 µg/mL; for `CC(=O)Nc1cccc2cc(C(=O)Nc3ccc(C#N)cc3C(=O)O)[nH]c12`: 2 µg/mL (≈ 5.52 µM); for `N#Cc1ccc(-c2cnc(C(=O)Nc3ccc(Br)cc3C(=O)O)o2)cc1`: 8 µg/mL (≈ 19.4 µM). The same measure for `N#Cc1ccc(NC(=O)c2cncc(C#CC3C=NNC3)c2)c(C(=O)O)c1` (stereo not shown): 4 µg/mL (≈ 11.1 µM); for `CCCC(C)Sc1ccc(C(=O)Nc2ccc(C#N)cc2C(=O)O)cn1` (stereo not shown): 0.125 µg/mL (≈ 0.338 µM). Consider `CCCCC(CC)C(=O)Nc1cccc2cc(C(=O)Nc3ccc(C#N)cc3C(=O)O)[nH]c12` (stereo not shown), for which the MIC stood at 0.5 µg/mL (≈ 1.12 µM). The same measure for `CCSc1ccc(C(=O)Nc2ccc(C#N)cc2C(=O)O)cn1.Cl`: 0.5 µg/mL; for `N#Cc1ccc(NC(=O)C2=NOC(c3ccccc3)C2)c(C(=O)O)c1` (stereo not shown): 4 µg/mL (≈ 11.9 µM). In the case of `N#Cc1ccc(NC(=O)c2cc3cccc(NC(=O)Cc4csc5ccccc45)c3[nH]2)c(C(=O)O)c1` it was 0.25 µg/mL (≈ 0.506 µM). The same measure for `N#Cc1ccc(NC(=O)c2[nH]c3c(OCc4ccccc4)cccc3c2Br)c(C(=O)O)c1`: 0.5 µg/mL (≈ 1.02 µM).

On to `N#Cc1ccc(NC(=O)c2cc3cccc(NC(=O)C(Cl)c4ccccc4)c3[nH]2)c(C(=O)O)c1` (stereo not shown), for which the MIC came to 0.125 µg/mL (≈ 0.264 µM). In the case of `Cc1sc(C(=O)Nc2ccc(C#N)cc2C(=O)O)cc1S(=O)(=O)N(CC(C)C)CC(C)C` it was 32 µg/mL (≈ 67 µM); in that of `N#Cc1ccc(NC(=O)c2noc3c2CN(C(=O)OCc2ccccc2)CC3)c(C(=O)O)c1`, 0.5 µg/mL (≈ 1.12 µM). Regarding `N#Cc1ccc(NC(=O)c2cc(-c3ccccc3Oc3cccc(-c4ccccc4)c3)on2)c(C(=O)O)c1`, the MIC is greater than 128 µg/mL. In the case of `O=C(Nc1ccc(Br)cc1C(=O)O)c1ccco1` it was greater than 128 µg/mL; in that of `N#Cc1ccc(NC(=O)c2cc3cccc(NC(=O)COCc4ccccc4)c3[nH]2)c(C(=O)O)c1`, 1 µg/mL (≈ 2.13 µM); in that of `Cc1sc(C(=O)Nc2ccc(Br)cc2C(=O)O)cc1S(=O)(=O)NC1CCN(Cc2ccccc2)CC1`, greater than 128 µg/mL. The same measure for `CCCCCSc1ccc(C(=O)Nc2ccc(C#N)cc2C(=O)O)nn1`: 0.015 µg/mL (≈ 0.0405 µM). The same measure for `CC(C)(C)c1ccc(CC(=O)Nc2cccc3cc(C(=O)Nc4ccc(C#N)cc4C(=O)O)[nH]c23)cc1`: 0.5 µg/mL (≈ 1.01 µM); for `N#Cc1ccc(NC(=O)c2ccc(Cl)nc2)c(C(=O)O)c1`: 16 µg/mL (≈ 53 µM). Consider `N#Cc1ccc(NC(=O)c2noc3cc(OCc4ccccc4)ccc23)c(C(=O)O)c1`, for which the MIC is 0.25 µg/mL (≈ 0.605 µM).

For the molecule `Cn1c(C(=O)Nc2ccc(C#N)cc2C(=O)O)cc2cccc(NC(=O)Cc3ccc(F)cc3)c21`, the MIC came to 0.125 µg/mL (≈ 0.266 µM). The same measure for `Cn1c(C(=O)Nc2ccc(C#N)cc2C(=O)O)cc2ccc(OCc3ccccc3)cc21`: 0.125 µg/mL (≈ 0.294 µM). The same measure for `Cc1sc(C(=O)Nc2ccc(Br)cc2C(=O)O)cc1S(=O)(=O)NC1Cc2ccccc2C1`: 8 µg/mL (≈ 14.9 µM). In the case of `N#Cc1ccc(NC(=O)c2cc3cccc(NC(=O)c4ccc(Cl)nc4)c3[nH]2)c(C(=O)O)c1` it was 1 µg/mL (≈ 2.17 µM); in that of `CC(C)Sc1ccc(C(=O)Nc2ccc(Br)cc2C(=O)O)cn1`, 1 µg/mL (≈ 2.53 µM).

As to `O=C(Nc1ccc(Br)cc1C(=O)O)c1ccc(SC2CCCCC2)nc1`, the MIC turned out to be 1 µg/mL (≈ 2.3 µM).

As for `Cl.Cn1c(C(=O)Nc2ccc(C#N)cc2C(=O)O)cc2cccc(OCC(O)Cn3ccnc3)c21` (stereo not shown), the MIC worked out at 0.5 µg/mL. The same measure for `CCCCCC(=O)Nc1cccc2cc(C(=O)Nc3ccc(C#N)cc3C(=O)O)[nH]c12`: 0.5 µg/mL (≈ 1.19 µM); for `COCCn1c(C(=O)Nc2ccc(Cl)cc2C(=O)O)cc2ccccc21`: 16 µg/mL (≈ 42.9 µM); for `N#Cc1ccc(NC(=O)c2ccc(SC3CCCCC3)nc2)c(C(=O)O)c1`: 0.5 µg/mL (≈ 1.31 µM).

As for `N#Cc1ccc(NC(=O)c2noc3ccc(-c4ccccc4F)cc23)c(C(=O)O)c1`, the MIC was 0.125 µg/mL (≈ 0.311 µM).

As for `COc1ccc(-c2cc(C(=O)Nc3ccc(C#N)cc3C(=O)O)no2)cc1`, the MIC turned out to be 0.5 µg/mL (≈ 1.38 µM). In the case of `CC(C)Oc1cccc2cc(C(=O)Nc3ccc(C#N)cc3C(=O)O)n(C)c12` it was 0.125 µg/mL (≈ 0.331 µM).

`Cc1sc(C(=O)Nc2ccc(C#N)cc2C(=O)O)cc1S(=O)(=O)N1CCCCCC1`: the MIC worked out at 8 µg/mL (≈ 17.9 µM).

Take `CC(=O)Nc1cccc(-c2ccc3onc(C(=O)Nc4ccc(C#N)cc4C(=O)O)c3c2)c1`: the MIC worked out at 0.5 µg/mL (≈ 1.14 µM). The same measure for `CCCCCn1c(C(=O)Nc2ccc(Cl)cc2C(=O)O)cc2ccccc21`: 4 µg/mL (≈ 10.4 µM); for `O=C(Nc1ccc(Br)cc1C(=O)O)c1cnc(CC(O)[C@H](O)CO)cn1` (stereo partly shown): greater than 128 µg/mL; for `O=C(Nc1ccc(Cl)cc1C(=O)O)c1cc2cccc(S(=O)(=O)c3ccccc3)c2[nH]1`: 0.125 µg/mL (≈ 0.275 µM). The same measure for `C=CCOc1ccccc1-c1cc(C(=O)Nc2ccc(C#N)cc2C(=O)O)no1`: 0.125 µg/mL (≈ 0.321 µM); for `Cc1noc(C)c1-c1cc(C(=O)Nc2ccc(C#N)cc2C(=O)O)no1`: 1 µg/mL (≈ 2.84 µM); for `Cc1cccc(CC(=O)Nc2cccc3cc(C(=O)Nc4ccc(C#N)cc4C(=O)O)[nH]c23)c1`: 0.125 µg/mL (≈ 0.276 µM). The same measure for `CCCCS(=O)(=O)Nc1cccc2cc(C(=O)Nc3ccc(C#N)cc3C(=O)O)n(C)c12`: 0.25 µg/mL (≈ 0.55 µM).

`CCCCCCCSc1cnc(C(=O)Nc2ccc(C#N)cc2C(=O)O)cn1`: the MIC came out at 0.25 µg/mL (≈ 0.627 µM). The same measure for `N#Cc1ccc(NC(=O)c2cc3cccc4c3n2CC/C4=N\O)c(C(=O)O)c1`: 0.25 µg/mL (≈ 0.668 µM); for `Cc1ccccc1-c1ccc2cc(C(=O)Nc3ccc(C#N)cc3C(=O)O)n(C)c2c1`: 0.5 µg/mL (≈ 1.22 µM); for `CC1(C(=O)Nc2cccc3cc(C(=O)Nc4ccc(C#N)cc4C(=O)O)[nH]c23)CC1`: 2 µg/mL (≈ 4.97 µM). The same measure for `N#Cc1ccc(NC(=O)c2csc(SCc3ccccc3)n2)c(C(=O)O)c1`: 4 µg/mL (≈ 10.1 µM); for `Cn1c(C(=O)Nc2ccc(C#N)cc2C(=O)O)cc2cccc(NC(=O)Cc3ccncc3)c21.O=C(O)C(F)(F)F`: 1 µg/mL. In the case of `N#Cc1ccc(NC(=O)c2cc3cccc4c3n2CC/C4=N\Oc2ccccc2)c(C(=O)O)c1` it was 2 µg/mL (≈ 4.44 µM). For `O=C(Nc1ccc(Br)cc1C(=O)O)c1cnc2ccccc2n1`, the MIC was found to be 8 µg/mL (≈ 21.5 µM). In the case of `N#Cc1ccc(NC(=O)c2cc(-c3ccccc3Oc3ccccc3)on2)c(C(=O)O)c1` it was 0.03 µg/mL (≈ 0.0705 µM); in that of `CN(CC(O)C(O)C(O)C(O)CO)C(=O)Nc1cccc2cc(C(=O)Nc3ccc(C#N)cc3C(=O)O)n(C)c12` (stereo not shown), 32 µg/mL (≈ 57.6 µM). The same measure for `O=C(Nc1ccc(Br)cc1C(=O)O)c1cc2ccccc2o1`: 8 µg/mL (≈ 22.2 µM); for `CCn1c(C(=O)Nc2ccc(C#N)cc2C(=O)O)cc2ccccc21`: 1 µg/mL (≈ 3 µM).

For the molecule `N#Cc1ccc(NC(=O)c2cc(CCC(O)CO)on2)c(C(=O)O)c1` (stereo not shown), the MIC is 8 µg/mL (≈ 23.2 µM). On to `CC(=O)Nc1ccccc1-c1ccc2onc(C(=O)Nc3ccc(C#N)cc3C(=O)O)c2c1`, for which the MIC stood at 0.5 µg/mL (≈ 1.14 µM). The same measure for `N#Cc1ccc(NC(=O)c2cncc(-c3ccc(C(F)(F)F)cc3)c2)c(C(=O)O)c1`: greater than 128 µg/mL. The same measure for `Cn1c(C(=O)Nc2ccc(C#N)cc2C(=O)O)cc2cccc(NC(=O)NCC(O)CO)c21` (stereo not shown): 4 µg/mL (≈ 8.86 µM); for `N#Cc1ccc(NC(=O)c2ccc(SC3CCOCC3)nc2)c(C(=O)O)c1`: 0.125 µg/mL (≈ 0.326 µM); for `COc1ccc(-c2cc(C(=O)Nc3ccc(Br)cc3C(=O)O)nn2C)cc1`: greater than 128 µg/mL. In the case of `N#Cc1ccc(NC(=O)c2noc3ccccc23)c(C(=O)O)c1` it was 0.125 µg/mL (≈ 0.407 µM); in that of `CC(=O)Oc1ccc(N2C(=O)c3ccc(C(=O)Nc4ccc(Br)cc4C(=O)O)cc3C2=O)cc1`, 64 µg/mL (≈ 122 µM). As to `CC(C)Cn1c(C(=O)Nc2ccc(C#N)cc2C(=O)O)cc2ccccc21`, the MIC is 4 µg/mL (≈ 11.1 µM). The same measure for `CC(Oc1ccccc1-c1cc(C(=O)Nc2ccc(C#N)cc2C(=O)O)no1)C1CCCCC1` (stereo not shown): 1 µg/mL (≈ 2.18 µM). The same measure for `N#Cc1ccc(NC(=O)c2nsc(Cl)c2Cl)c(C(=O)O)c1`: 4 µg/mL (≈ 11.7 µM). The same measure for `Cc1sc(C(=O)Nc2ccc(C#N)cc2C(=O)O)cc1S(=O)(=O)N(C)CCc1ccccc1`: 4 µg/mL (≈ 8.27 µM). Turning to `Cn1c(C(=O)Nc2ccc(C#N)cc2C(=O)O)cc2cccc(NC(=O)NCC3CCCO3)c21` (stereo not shown), the MIC was 1 µg/mL (≈ 2.17 µM). Take `N#Cc1ccc(NC(=O)c2ccc3c(c2)OCO3)c(C(=O)O)c1`: the MIC stood at 16 µg/mL (≈ 51.6 µM). The same measure for `N#Cc1ccc(NC(=O)c2nc3ccccc3o2)c(C(=O)O)c1`: 1 µg/mL (≈ 3.25 µM). The same measure for `CCCCCCSc1cnc(C(=O)Nc2ccc(C#N)cc2C(=O)O)cn1`: 0.125 µg/mL (≈ 0.325 µM); for `O=C(Nc1ccc(Br)cc1C(=O)O)c1ccc2ccccc2n1`: 8 µg/mL (≈ 21.6 µM).

As to `N#Cc1ccc(NC(=O)c2cc3cccc(NC(=O)c4ccc(F)cc4F)c3[nH]2)c(C(=O)O)c1`, the MIC stood at 1 µg/mL (≈ 2.17 µM).

On to `Cn1c(C(=O)Nc2cccc3cc(C(=O)Nc4ccc(C#N)cc4C(=O)O)n(C)c23)cc2ccccc21`, for which the MIC is 0.125 µg/mL (≈ 0.254 µM).
